Results from patent US20080213250A1, “Use of Eph Receptor Inhibitors for the Treatment of Neurodegenerative Diseases” (priority 2004, published 2008).

How the values were obtained:
Assay in all cases: Chemical proteomics pull-down with immobilized compound, LC-MS/MS identification
Details in all cases: maximum in any chemical proteomics experiment
EphA2 = EphA2 (Mus musculus, UniProt Q03145)
EphA3 = target: T1, EphA3 (Mus musculus, UniProt P29319)
T1 sequence (P29319 21-983): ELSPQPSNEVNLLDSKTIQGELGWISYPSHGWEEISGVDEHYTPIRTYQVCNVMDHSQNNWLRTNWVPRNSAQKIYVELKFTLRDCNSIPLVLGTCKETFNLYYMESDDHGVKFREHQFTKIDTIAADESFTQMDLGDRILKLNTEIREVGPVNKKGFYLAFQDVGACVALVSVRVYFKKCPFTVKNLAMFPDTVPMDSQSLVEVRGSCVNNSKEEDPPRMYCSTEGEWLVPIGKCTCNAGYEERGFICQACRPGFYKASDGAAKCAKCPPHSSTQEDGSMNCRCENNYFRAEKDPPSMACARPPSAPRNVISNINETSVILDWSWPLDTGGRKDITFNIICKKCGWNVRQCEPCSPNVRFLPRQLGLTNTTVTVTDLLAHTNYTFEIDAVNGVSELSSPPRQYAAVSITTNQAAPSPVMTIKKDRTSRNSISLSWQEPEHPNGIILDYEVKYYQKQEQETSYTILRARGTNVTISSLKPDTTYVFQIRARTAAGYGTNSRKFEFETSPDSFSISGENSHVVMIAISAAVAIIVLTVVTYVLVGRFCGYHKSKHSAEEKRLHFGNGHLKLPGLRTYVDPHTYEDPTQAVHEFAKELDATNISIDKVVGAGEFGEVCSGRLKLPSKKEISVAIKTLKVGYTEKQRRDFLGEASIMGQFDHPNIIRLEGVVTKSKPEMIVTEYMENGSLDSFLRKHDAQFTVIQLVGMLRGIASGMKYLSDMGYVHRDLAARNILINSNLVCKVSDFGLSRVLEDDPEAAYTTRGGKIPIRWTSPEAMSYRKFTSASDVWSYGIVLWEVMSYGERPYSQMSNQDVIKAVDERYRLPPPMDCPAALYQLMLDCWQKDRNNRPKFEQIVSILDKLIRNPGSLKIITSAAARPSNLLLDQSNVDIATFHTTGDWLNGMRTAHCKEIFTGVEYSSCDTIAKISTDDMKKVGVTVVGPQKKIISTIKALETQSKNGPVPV

EphB2 = target: T2, EphB2 (Mus musculus, UniProt P54763)
T2 sequence (P54763 19-986): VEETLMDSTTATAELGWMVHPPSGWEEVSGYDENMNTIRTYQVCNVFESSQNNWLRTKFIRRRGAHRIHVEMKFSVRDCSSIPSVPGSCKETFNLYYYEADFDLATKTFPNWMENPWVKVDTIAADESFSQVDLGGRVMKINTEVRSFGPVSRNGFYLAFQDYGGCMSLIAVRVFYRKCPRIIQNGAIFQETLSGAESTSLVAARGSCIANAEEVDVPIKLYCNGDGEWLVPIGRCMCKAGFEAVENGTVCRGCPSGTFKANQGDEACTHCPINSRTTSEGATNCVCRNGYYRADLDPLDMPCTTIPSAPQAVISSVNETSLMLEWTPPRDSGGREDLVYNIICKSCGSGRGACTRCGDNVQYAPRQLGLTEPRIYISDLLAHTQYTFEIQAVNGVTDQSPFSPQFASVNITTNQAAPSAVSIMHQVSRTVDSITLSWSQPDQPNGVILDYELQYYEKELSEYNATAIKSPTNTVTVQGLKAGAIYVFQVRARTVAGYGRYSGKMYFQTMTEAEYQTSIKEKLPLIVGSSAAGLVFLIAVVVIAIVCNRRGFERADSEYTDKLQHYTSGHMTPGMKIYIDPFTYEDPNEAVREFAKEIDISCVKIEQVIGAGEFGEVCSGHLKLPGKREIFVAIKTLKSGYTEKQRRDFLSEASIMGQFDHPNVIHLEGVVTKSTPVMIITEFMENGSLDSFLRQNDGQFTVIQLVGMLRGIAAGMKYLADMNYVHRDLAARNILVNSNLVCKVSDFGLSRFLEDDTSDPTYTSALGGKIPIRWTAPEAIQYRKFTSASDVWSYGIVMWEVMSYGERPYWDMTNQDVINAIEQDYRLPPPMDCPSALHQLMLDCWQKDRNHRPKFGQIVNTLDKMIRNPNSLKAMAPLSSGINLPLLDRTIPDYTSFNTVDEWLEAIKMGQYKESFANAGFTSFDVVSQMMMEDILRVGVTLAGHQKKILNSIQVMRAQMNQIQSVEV

EphB6 = target: T3, EphB6 (Mus musculus, UniProt O08644)
T3 sequence (O08644 33-1014): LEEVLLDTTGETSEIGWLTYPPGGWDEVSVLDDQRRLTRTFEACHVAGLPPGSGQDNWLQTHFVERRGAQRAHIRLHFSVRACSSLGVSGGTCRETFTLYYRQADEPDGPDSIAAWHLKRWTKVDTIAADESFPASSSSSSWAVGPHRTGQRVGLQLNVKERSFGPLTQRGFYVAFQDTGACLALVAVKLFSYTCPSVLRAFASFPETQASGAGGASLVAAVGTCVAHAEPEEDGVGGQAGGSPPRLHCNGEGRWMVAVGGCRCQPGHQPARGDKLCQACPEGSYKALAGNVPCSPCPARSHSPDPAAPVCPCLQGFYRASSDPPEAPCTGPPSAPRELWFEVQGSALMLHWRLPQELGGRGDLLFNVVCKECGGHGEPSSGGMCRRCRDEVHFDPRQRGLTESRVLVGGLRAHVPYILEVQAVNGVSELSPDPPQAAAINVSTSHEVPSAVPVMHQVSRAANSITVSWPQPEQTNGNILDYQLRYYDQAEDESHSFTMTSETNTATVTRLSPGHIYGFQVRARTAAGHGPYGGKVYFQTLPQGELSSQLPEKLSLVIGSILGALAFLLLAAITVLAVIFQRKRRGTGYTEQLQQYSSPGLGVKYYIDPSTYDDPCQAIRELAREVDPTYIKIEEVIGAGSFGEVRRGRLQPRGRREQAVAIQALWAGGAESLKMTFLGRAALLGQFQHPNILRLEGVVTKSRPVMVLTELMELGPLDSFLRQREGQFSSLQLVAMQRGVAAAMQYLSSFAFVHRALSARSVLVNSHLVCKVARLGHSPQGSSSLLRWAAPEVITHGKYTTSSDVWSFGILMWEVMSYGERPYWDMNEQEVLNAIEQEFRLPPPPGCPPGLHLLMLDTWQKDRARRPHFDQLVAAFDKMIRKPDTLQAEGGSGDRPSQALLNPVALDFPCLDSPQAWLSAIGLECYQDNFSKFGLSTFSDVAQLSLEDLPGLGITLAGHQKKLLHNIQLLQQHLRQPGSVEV

Sequence of EphA2 (Q03145 26-977): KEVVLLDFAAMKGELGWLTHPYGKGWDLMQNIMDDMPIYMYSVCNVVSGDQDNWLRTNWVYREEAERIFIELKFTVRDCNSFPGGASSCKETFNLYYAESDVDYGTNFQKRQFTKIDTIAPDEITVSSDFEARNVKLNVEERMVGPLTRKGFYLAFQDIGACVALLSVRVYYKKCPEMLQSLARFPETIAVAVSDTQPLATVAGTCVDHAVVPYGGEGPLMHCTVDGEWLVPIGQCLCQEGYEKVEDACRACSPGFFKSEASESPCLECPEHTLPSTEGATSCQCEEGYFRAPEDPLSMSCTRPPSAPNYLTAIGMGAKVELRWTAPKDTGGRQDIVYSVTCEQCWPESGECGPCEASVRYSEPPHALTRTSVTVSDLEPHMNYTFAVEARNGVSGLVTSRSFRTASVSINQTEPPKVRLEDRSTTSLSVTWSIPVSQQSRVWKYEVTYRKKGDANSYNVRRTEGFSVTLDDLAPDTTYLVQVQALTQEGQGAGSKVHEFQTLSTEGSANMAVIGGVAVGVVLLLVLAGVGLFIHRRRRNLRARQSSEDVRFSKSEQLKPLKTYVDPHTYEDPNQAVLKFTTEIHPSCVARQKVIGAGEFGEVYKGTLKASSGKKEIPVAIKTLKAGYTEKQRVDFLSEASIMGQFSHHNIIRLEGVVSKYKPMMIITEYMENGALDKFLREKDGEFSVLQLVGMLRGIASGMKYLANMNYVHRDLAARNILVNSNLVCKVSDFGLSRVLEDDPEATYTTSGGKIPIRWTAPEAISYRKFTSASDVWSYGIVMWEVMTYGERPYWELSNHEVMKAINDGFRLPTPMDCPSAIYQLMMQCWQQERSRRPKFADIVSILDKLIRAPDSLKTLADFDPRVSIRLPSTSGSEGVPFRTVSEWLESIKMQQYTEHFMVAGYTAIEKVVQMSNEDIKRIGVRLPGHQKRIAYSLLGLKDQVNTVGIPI

Compound | maximal number of non-redundant peptides identified, EphA2 (EphA2) | maximal number of non-redundant peptides identified, EphA3 (EphA3) | maximal number of non-redundant peptides identified, EphB2 (EphB2) | maximal number of non-redundant peptides identified, EphB6 (EphB6)
CC(C)[C@H](CO)Nc1nc(Nc2ccc(C(=O)O)c(Cl)c2)c2ncn(C(C)C)c2n1 [Purvalanol B] | 18 | 1 | 23 | –
CSc1cccc(Nc2ncc3cc(-c4c(Cl)cccc4Cl)c(=O)n(C)c3n2)c1 [PD173955] | – | – | 35 | 7
